Reference: patent publication US11185557B2, “Use of rhamnose and derivatives thereof as antifungal agents” (ISDIN, S.A., priority 2017, dated 2021)

Test system: Malassezia furfur
Experiment: Ex-vivo antifungal activity assay on inoculated human skin explants, product applied 24 hours after inoculation, CFU quantification
Format: cell-based
Conditions: topical 2 mg/cm^2 applied 24 hours post inoculation, versus inoculum (C1) and untreated control explants (C2), FIG. 2
Protocol: Human organotypic skin cultures were obtained from abdominal skin removed during aesthetic surgery. These skin explants were altered by partial elimination of stratum corneum to facilitate the colonization and MF suspension was placed on the skin surface and incubated for 24 hours under conditions that are optimal for MF growth. 24 hours post initial MF inoculation, NSFC was topically applied on skin explants (2 mg/cm^2) and spread evenly. On control skin explants, inoculated in the same way, no product was applied (C2). A sham control group was treated with a neutral cream without known antifungal properties, petroleum jelly (P3). Growth of MF was monitored by quantifying MF Colony Forming Units (CFUs) in a sample removed from skin surface. The quantification of CFUs was carried out by recovering fungal microorganisms from skin explants and subsequent plating them following the serial dilution method to determine the number of CFUs.
The antifungal activity was evaluated for Ketoconazole 2% (P1), the composition of example 1 (P2), and petroleum jelly (Vaseline) (P3) with respect to the inoculum concentration (C1) and control skin explants (C2).

CC(=O)N1CCN(c2ccc(OCC3COC(Cn4ccnc4)(c4ccc(Cl)cc4Cl)O3)cc2)CC1 (stereo not shown) [Ketoconazol 2%, ketoconazole]
growth of M. furfur on the skin explants (CFUs): reduced the growth of the fungus
